# Source: patent publication US20090133153A1, “Polypeptide participating in pyridoxine biosynthesis, polynucleotide encoding the polypetide and those uses” (Genomine, Inc, priority 2004, published 2009)
# Columns and labels:
# [1] = test system: T2 Arabidopsis thaliana transformant (anti-sense AtPDX4); assay: Pyridoxine auxotrophy test: T2 seeds of anti-sense AtPDX4 transformant on MS medium with pyridoxine; type: in vivo; settings: 2.5 mg/L pyridoxine-HCl; for seeds germinated to grow: MS medium with 12 mg/L PPT
# Description: Arabidopsis thaliana was cultivated in a soil-filled pot or cultivated in a petri dish by using MS medium (Murashige and Skoog salts, Sigma, U.S.A.) containing 2% sucrose (pH 5.7) and 0.8% agar. In this study, vitamin B6 group (including pyridoxine) was excluded from the vitamin mixture used in the MS medium. The culture pot was incubated at 22° C. in a growth chamber and controlled by 16/8 hours of light and dark cycle. Meanwhile, in order to investigate whether the plant transformant becomes pyridoxine auxotroph mutant or not after transformed with anti-sense construct against AtPDX4 gene, T2 seed of Arabidopsis thaliana transformant was collected from T1 transformant and cultivated to estimate the reaction by adding pyridoxine. Above all, MS medium containing 12 mg/L PPT (phosphinothricine, Duchefa, Netherlands) was prepared and T2 seeds were treated at a low temperature (4° C.) for 3 days. 120 of T2 seeds were cultivated respectively on 2 (total 4) petri dishes of MS media (30 seeds per petri dish) with or without 2.5 mg/L of pyridoxine-HCl (Sigma, USA), so as to select T2 Arabidopsis thaliana transformant.
# [2] = test system: T2 Arabidopsis thaliana transformant (anti-sense AtPDX4); assay: Phenotype recovery of T2 anti-sense AtPDX4 transformant by vitamin B6's; type: in vivo; settings: 0.5 mg/L, 7 days
# Description: Arabidopsis thaliana was cultivated in a soil-filled pot or cultivated in a petri dish by using MS medium (Murashige and Skoog salts, Sigma, U.S.A.) containing 2% sucrose (pH 5.7) and 0.8% agar. In this study, vitamin B6 group (including pyridoxine) was excluded from the vitamin mixture used in the MS medium. The culture pot was incubated at 22° C. in a growth chamber and controlled by 16/8 hours of light and dark cycle.
# Above all, in order to select T2 Arabidopsis transformant, MS medium containing 12 mg/L PPT (phosphinothricine, Duchefa, Netherlands) was prepared and T2 seeds were treated at a low temperature (4° C.) for 3 days. 120 of T2 seeds were cultivated on petri dishes containing MS media with or without 0.5 mg/L of pyridoxine-HCl (Sigma, USA), pyridoxamine-2HCl (Sigma, USA), pyridoxal-HCl (Sigma, USA) or pyridoxal-5-phosphate (Sigma, USA).
compound,measurement,setting,value
"Cc1ncc(CO)c(CO)c1O [pyridoxine, 2-methyl-3-hydroxy-4,5-di(hydroxymethyl)pyridine]",phenotype compared with wild type Arabidopsis thaliana,[1]; 7 days,not to change in the phenotype remarkably
same,phenotype compared with wild type Arabidopsis,[1]; 19 days,not to change in the phenotype such as growth retardation
same,seeds germinated to grow,[1]; 7 days,22 seeds
same,seeds germinated to grow,[1]; 19 days,24 seeds
same,phenotype of plant transformant,[2],not to change in the phenotype remarkably
same,seeds germinated to grow,[2]; MS medium with 12 mg/L PPT,26 seeds
